Assay results reported in ChEMBL document CHEMBL3865816, “Design, synthesis and biological evaluation of novel azaspiro analogs of linezolid as antibacterial and antitubercular agents” (Eur J Med Chem, 2016).
In brackets after ≈: the same amount, converted by molar mass.

Assays:
Format in all cases: functional
Escherichia coli [1] = assay: Antibacterial activity against Escherichia coli NCIM 2688 at 10 ug/ml measured after 8 hrs by spectrophotometric method; conditions: NCIM 2688, 8 h
Bacillus subtilis [2] = assay: Antibacterial activity against Bacillus subtilis NCIM 2010 at 30 ug/ml measured after 12 hrs by spectrophotometric method; conditions: NCIM 2010, 12 h
Staphylococcus aureus [3] = assay: Antibacterial activity against Staphylococcus aureus NCIM 2079 measured after 12 hrs by spectrophotometric method; conditions: NCIM 2079, 12 h
Bacillus subtilis [4] = assay: Antibacterial activity against Bacillus subtilis NCIM 2010 at 10 ug/ml measured after 12 hrs by spectrophotometric method; conditions: NCIM 2010, 12 h
[5] = test system: Mycobacterium tuberculosis; assay: Antitubercular activity against dormant stage Mycobacterium tuberculosis H37Ra at 3 ug/ml measured after 12 days by XTT assay; conditions: 288 h
Escherichia coli [6] = assay: Antibacterial activity against Escherichia coli NCIM 2688 at 3 ug/ml measured after 8 hrs by spectrophotometric method; conditions: NCIM 2688, 8 h
[7] = test system: Mycobacterium tuberculosis; assay: Antitubercular activity against dormant stage Mycobacterium tuberculosis H37Ra measured after 12 days by XTT assay; conditions: 288 h
[8] = test system: Mycobacterium tuberculosis; assay: Antitubercular activity against dormant stage Mycobacterium tuberculosis H37Ra at 30 ug/ml measured after 12 days by XTT assay; conditions: 288 h
Pseudomonas aeruginosa [9] = assay: Antibacterial activity against Pseudomonas aeruginosa NCIM 2036 at 10 ug/ml measured after 8 hrs by spectrophotometric method; conditions: NCIM 2036, 8 h
Bacillus subtilis [10] = assay: Antibacterial activity against Bacillus subtilis NCIM 2010 measured after 12 hrs by spectrophotometric method; conditions: NCIM 2010, 12 h
Escherichia coli [11] = assay: Antibacterial activity against Escherichia coli NCIM 2688 at 30 ug/ml measured after 8 hrs by spectrophotometric method; conditions: NCIM 2688, 8 h
Bacillus subtilis [12] = assay: Antibacterial activity against Bacillus subtilis NCIM 2010 at 3 ug/ml measured after 12 hrs by spectrophotometric method; conditions: NCIM 2010, 12 h
Escherichia coli [13] = assay: Antibacterial activity against Escherichia coli NCIM 2688 measured after 8 hrs by spectrophotometric method; conditions: NCIM 2688, 8 h
Staphylococcus aureus [14] = assay: Antibacterial activity against Staphylococcus aureus NCIM 2079 at 10 ug/ml measured after 12 hrs by spectrophotometric method; conditions: NCIM 2079, 12 h
Staphylococcus aureus [15] = assay: Antibacterial activity against Staphylococcus aureus NCIM 2079 at 30 ug/ml measured after 12 hrs by spectrophotometric method; conditions: NCIM 2079, 12 h
Pseudomonas aeruginosa [16] = assay: Antibacterial activity against Pseudomonas aeruginosa NCIM 2036 measured after 8 hrs by spectrophotometric method; conditions: NCIM 2036, 8 h
Staphylococcus aureus [17] = assay: Antibacterial activity against Staphylococcus aureus NCIM 2079 at 3 ug/ml measured after 12 hrs by spectrophotometric method; conditions: NCIM 2079, 12 h
Pseudomonas aeruginosa [18] = assay: Antibacterial activity against Pseudomonas aeruginosa NCIM 2036 at 3 ug/ml measured after 8 hrs by spectrophotometric method; conditions: NCIM 2036, 8 h
[19] = test system: Mycobacterium tuberculosis; assay: Antitubercular activity against dormant stage Mycobacterium tuberculosis H37Ra at 10 ug/ml measured after 12 days by XTT assay; conditions: 288 h
Pseudomonas aeruginosa [20] = assay: Antibacterial activity against Pseudomonas aeruginosa NCIM 2036 at 30 ug/ml measured after 8 hrs by spectrophotometric method; conditions: NCIM 2036, 8 h
[21] = test system: Mycobacterium tuberculosis; assay: Antitubercular activity against active stage Mycobacterium tuberculosis H37Ra measured after 8 days by XTT assay; conditions: 192 h

Compound | inhibition at 10 µg/mL (Escherichia coli [1]) | inhibition at 30 µg/mL (Bacillus subtilis [2]) | IC50 (Staphylococcus aureus [3]) | MIC (Staphylococcus aureus [3]) | inhibition at 10 µg/mL (Bacillus subtilis [4]) | inhibition at 3 µg/mL [5] | inhibition at 3 µg/mL (Escherichia coli [6]) | IC50 [7] | MIC [7] | inhibition at 30 µg/mL [8] | inhibition at 10 µg/mL (Pseudomonas aeruginosa [9]) | IC50 (Bacillus subtilis [10]) | MIC (Bacillus subtilis [10]) | inhibition at 30 µg/mL (Escherichia coli [11]) | inhibition at 3 µg/mL (Bacillus subtilis [12]) | IC50 (Escherichia coli [13]) | MIC (Escherichia coli [13]) | inhibition at 10 µg/mL (Staphylococcus aureus [14]) | inhibition at 30 µg/mL (Staphylococcus aureus [15]) | IC50 (Pseudomonas aeruginosa [16]) | other results
CC(=O)OCC(=O)NC[C@H]1CN(c2ccc(N3CC4(COC4)C3)c(F)c2)C(=O)O1 | 63.9% | 99.3% | 0.75 µg/mL (≈ 1.84 µM) | 8.4 µg/mL (≈ 20.6 µM) | 73.6% | -16.6% | 49.4% | 6.69 µg/mL (≈ 16.4 µM) | 10.6 µg/mL (≈ 26.1 µM) | 88.9% | 42.8% | > 100 µg/mL | > 100 µg/mL | 89.1% | 43.6% | > 100 µg/mL | > 100 µg/mL | 93.9% | 98.2% | > 100 µg/mL | MIC (Pseudomonas aeruginosa [16]): > 100 µg/mL; inhibition at 3 µg/mL (Staphylococcus aureus [17]): 82.5%; inhibition at 3 µg/mL (Pseudomonas aeruginosa [18]): 22.8%; inhibition at 10 µg/mL [19]: 4.03%; inhibition at 30 µg/mL (Pseudomonas aeruginosa [20]): 58.3%; IC50 [21]: 3.24 µg/mL (≈ 7.95 µM); MIC [21]: 7.8 µg/mL (≈ 19.1 µM)
NC[C@H]1CN(c2ccc(N3CC4(COC4)C3)c(F)c2)C(=O)O1 | 96.8% | 48.8% | 0.84 to 0.843 µg/mL (≈ 2.73 to 2.74 µM) | 3.38 µg/mL (≈ 11 µM) | 43.3% | 15.2% | 88% | 3.46 µg/mL (≈ 11.3 µM) | 11.3 µg/mL (≈ 36.9 µM) | 90.9% | 53.7% | > 100 µg/mL | > 100 µg/mL | 99.2% | 36.4% | 0.57 µg/mL (≈ 1.85 µM) | 4.05 µg/mL (≈ 13.2 µM) | 94.3% | 98.9% | > 100 µg/mL | MIC (Pseudomonas aeruginosa [16]): > 100 µg/mL; inhibition at 3 µg/mL (Staphylococcus aureus [17]): 86.5%; inhibition at 3 µg/mL (Pseudomonas aeruginosa [18]): 49.2%; inhibition at 10 µg/mL [19]: 75.2%; inhibition at 30 µg/mL (Pseudomonas aeruginosa [20]): 56.9%; IC50 [21]: 2.8 µg/mL (≈ 9.11 µM); MIC [21]: 18.3 µg/mL (≈ 59.4 µM)
O=C(NC[C@H]1CN(c2ccc(N3CC4(COC4)C3)c(F)c2)C(=O)O1)c1ccno1 | 93.3% | 100% | 0.88 µg/mL (≈ 2.19 µM) | 2.05 µg/mL (≈ 5.09 µM) | 97.3% | 4.35% | 88.3% | 9.58 µg/mL (≈ 23.8 µM) | 21.2 µg/mL (≈ 52.8 µM) | 95.4% | 94.9% | 0.49 µg/mL (≈ 1.22 µM) | 2.35 µg/mL (≈ 5.84 µM) | 99.9% | 90.5% | 0.71 to 0.72 µg/mL (≈ 1.76 to 1.79 µM) | 4.56 to 4.6 µg/mL (≈ 11.3 to 11.4 µM) | 98.2% | 98.5% | 0.51 µg/mL (≈ 1.27 µM) | MIC (Pseudomonas aeruginosa [16]): 2.57 µg/mL (≈ 6.39 µM); inhibition at 3 µg/mL (Staphylococcus aureus [17]): 95.1%; inhibition at 3 µg/mL (Pseudomonas aeruginosa [18]): 90.8%; inhibition at 10 µg/mL [19]: 18.2%; inhibition at 30 µg/mL (Pseudomonas aeruginosa [20]): 98.9%; IC50 [21]: 6.4 µg/mL (≈ 15.9 µM); MIC [21]: 10.9 µg/mL (≈ 27.1 µM)
OC1(CNc2ccc(N3CCOCC3)c(F)c2)CCN(Cc2ccccc2)C1 (stereo not drawn) | 49.6% | 52.2% | > 100 µg/mL | > 100 µg/mL | 47.1% | 8% | 45% | > 100 µg/mL | > 100 µg/mL | 5.62% | 37.1% | > 100 µg/mL | > 100 µg/mL | 53.9% | 44.7% | > 100 µg/mL | > 100 µg/mL | 48.9% | 53.2% | > 100 µg/mL | MIC (Pseudomonas aeruginosa [16]): > 100 µg/mL; inhibition at 3 µg/mL (Staphylococcus aureus [17]): 44.3%; inhibition at 3 µg/mL (Pseudomonas aeruginosa [18]): 14.4%; inhibition at 10 µg/mL [19]: 6.11%; inhibition at 30 µg/mL (Pseudomonas aeruginosa [20]): 63.7%
CC(=O)NC[C@H]1CN(c2ccc(N3CC4(COC4)C3)c(F)c2)C(=O)O1 | 17.4% | 100% | 0.53 µg/mL (≈ 1.52 µM) | 2.9 µg/mL (≈ 8.3 µM) | 95.4% | 15.1% | 3.06% | 2.07 µg/mL (≈ 5.93 µM) | 3.1 µg/mL (≈ 8.87 µM) | 95.2% | 91.9% | 0.65 µg/mL (≈ 1.86 µM) | 3.46 µg/mL (≈ 9.9 µM) | 28.8% | 88.8% | > 100 µg/mL | > 100 µg/mL | 91.8% | 99.5% | 0.58 µg/mL (≈ 1.66 µM) | MIC (Pseudomonas aeruginosa [16]): 6.4 µg/mL (≈ 18.3 µM); inhibition at 3 µg/mL (Staphylococcus aureus [17]): 90.4%; inhibition at 3 µg/mL (Pseudomonas aeruginosa [18]): 85.5%; inhibition at 10 µg/mL [19]: 94.7%; inhibition at 30 µg/mL (Pseudomonas aeruginosa [20]): 98.5%; IC50 [21]: 1.56 µg/mL (≈ 4.47 µM); MIC [21]: 2.55 µg/mL (≈ 7.3 µM)
